Where two headings read alike, the source gives them in different places. Marks after values point to notes of the source that are not given here.
Columns and labels:
[1] = system: in vitro activated gelatinases (MMPs) from MAT LyLu and TSU PR1 conditioned medium; assay: 3H-gelatin gelatinase activity assay on processed conditioned medium of prostate cancer cells; assay type: biochemical; conditions: for IC50: read-out: 50% inhibition dose (IC50), activated gelatinases
Method: The effects of CMT-3 and doxycycline on gelatinase activity or expression by prostate cancer cells were tested. First, we tested the capacity of CMT-3 and doxycycline to inhibit MMP secretion into culture medium. Gelatinase activity was measured using a method adapted from the method of Dean and Woessner (1985). Conditioned culture medium was collected from MAT LyLu and TSU PR1 cells treated with CMT-3 or doxycycline for two days. The serum-free culture medium comprised RPMI 1640 basal medium containing insulin (5 μg/mL), transferrin (5 μg/mL), selenious acid ([…]), and gentamicin (2 μg/mL). […] (Dean et al. 1987; Woessner 1991.) The dialyzed medium was assayed for gelatinase activity following activation of latent MMPs with 1 mM p-aminophenyl mercuric acetate (APMA) for 30 min at 37° C. The assay mix was 25 μg ^3H-gelatin (prepared from heat-denatured ^3H-acetylated acid-soluble collagen), 0.1 mL of processed culture-conditioned medium, 1 mM phenylmethyl sulfonyl fluoride (PMSF) in a total volume of 0.5 mL of an assay buffer (20 mM Tris-HCl, pH 7.4, 30 mM NaCl, 0.005% Brij35, 10 mM CaCl2, 2 μM ZnSO4, and 0.02% NaN3). In some cases, 1 mM CaCl2 (instead of 10 mM) was used. Blanks were obtained by adding 1 mM 1,10-phenanthroline. Doxycycline or CMT-3 were added to the assay mixture following activation of the latent MMPs and just before adding the substrate ^3H-gelatin.
(§1) MMP activity in the culture media was examined at 1 mM and 10 mM CaCl2, with no change in [Zn^2+] in the assay buffer. We employed 1 mM CaCl2, as this concentration is closer to physiological concentration, and 10 mM CaCl2, as it is reported to be the optimum concentration in in vitro assays (Woessner 1991). As is shown in Table 2, both CMT-3 and doxycycline inhibited in vitro activated gelatinases.

[2] = system: normal prostate stromal cells; assay: Alamar Blue viability assay, normal prostate stromal cells; assay type: cell-based, human
Description: Several cancer cell lines and normal cells were examined in vitro to determine whether tetracycline compounds produce cytotoxic (cell killing) effects. A conventional assay for viability of cultured cells based on redox activity in the cells was employed (Pagé et al. 1993). The assay uses a redox dye Alamar Blue, which is a fluorogenic indicator dye that is converted to a fluorescent red product only when cells are carrying out electron transport activity, a widely accepted criterion of viability.
Cultured cells from three prostate tumor cell lines, LNCAP, DU-145, and PC-3, and normal prostate stromal cells obtained by biopsy of a normal person, were allowed to grow to confluence in multiwell microplates to minimize differences in proliferative activity among the cell types at the time of exposure to the test compound. […] At the start of the experiment, and again at 1, 2, and 3 days, selected wells were incubated with the indicator dye for 3 hr, and the fluorescence was measured on a Cytofluor 2300 fluorescent microplate reader.

[3] = system: C8161 cells; assay: In vivo metastasis assay, C8161 cells i.v. in SCID mice; conditions: for Number of Lung Metastases/Mouse: Average ± SEM, control 231 ± 49
Method: Immunosuppressed mice (athymic nude/nude SCID females from Harlan Sprague Dawley) were housed in autoclaved cages with microisolator tops, and all manipulations of the animals were done in a laminar flow hood after wiping down both the hood, gloves and cages with ABQ sterilant. The mice were fed sterile Pico Lab Chow (Purina) and autoclaved St. Louis tap water. […] The compounds and control (sterile water plus 2% carboxymethyl cellulose) were kept stored at −80° C. wrapped in aluminum foil to prevent any light induced changes, and each day's supply was thawed just prior to use. Four compounds were tested for their effects on the metastatic potential of C8161 cells injected intravenously via the tail vein: […] The concentration of the compounds in the vials used to give the 100 mg/kg doses were 2.5 times that in the 40 mg/kg dose so that approximately the same volume was used in both cases, approximately 0.5 mL/animal. The experiments started with nine animals per group at day −4. On day zero, 2×10^5 C8161 cells in cold Hank's Balanced Salt Solution (HBSS) were injected intravenously via tail vein inoculation. The experiment was continued for an additional 24 days, at which time the animals were sacrificed and their lungs removed and fixed in a solution of Bouins/formaldehyde (5 parts:1 part). Tumors were quantitated on the entire surface of the lungs by rotating the lungs and counting the tumors on each lobe using a 6× magnifying glass. Statistical analysis was performed using the statistical package of Microsoft's Excel spreadsheet software.

[4] = system: MMP-9 (gelatinase B) expressed by E-10 cells; assay: MMP protein expression by Western blot of conditioned medium, E-10 cells; assay type: cell-based, human; conditions: 24 hr, serum-free medium
Method: (§2) Two human cancer-derived cell lines were obtained from the American Type Culture Collection (ATCC) in Rockville, Md. The cell lines included COLO 205, a human colon cancer-derived cell line that expresses MMP-2 or gelatinase A, and E-10, a human breast cancer-derived cell line that expresses MMP-9 or gelatinase B.
(§3) Cells of each cell line were cultured in 75 cm^2 T-flasks in RPMI-1640 (Gibco) with 10% heat-inactivated fetal bovine serum (FBS) containing 100 units/mL penicillin and 100 μg/mL streptomycin. The cells were fed every two days, and passaged every week. The cells were grown to 80-90% confluence, and then the FBS-containing medium was replaced with a serum-free medium (SFM). CMT-3 (CollaGenex Pharmaceuticals, Inc., Newtown, Pa.) was added in several concentrations to the cells in SFM. Conditioned medium was collected after 24 hr, centrifuged to remove cell debris, and then assayed for MMP protein expression by Western blot using a conventional technique, and scanning the blots with a laser densitometer.

[5] = system: activation of MMPs by p-aminophenyl mercuric acetate; assay: Inhibition of APMA activation of MMPs in processed conditioned medium; assay type: biochemical
Method: In addition, the ability of doxycycline or CMT-3 to inhibit APMA activation of MMPs was tested. Processed culture-conditioned medium was incubated with the drugs for 1 hr before adding 1 mM APMA, and the incubation was continued thereafter for 2 hr. ^3H-gelatin was then added and the assy was continued for 4 hr. All assays were performed in duplicate tubes, and repeated at least twice.
as §1

[6] = system: MMP-2 (gelatinase A) expressed by COLO 205 cells; assay: MMP protein expression by Western blot of conditioned medium, COLO 205 cells; assay type: cell-based, human; conditions: 24 hr, serum-free medium
Method: as §2, §3

**Q.** With `NC(=O)C1=C(O)CC2CC3Cc4cccc(O)c4C(=O)C3=C(O)C2(O)C1=O` (centres unmarked) [CMT-3, 6-demethyl-6-deoxy-4-de(dimethylamino)tetracycline] as the molecule, how does the “Percent Inhibition (gelatinase activity)” value ([1]; 0.25 μM drug, 10 mM CaCl2) read?
**A.** 31.5 ± 1.2%

**Q.** And the “Percent Inhibition (gelatinase activity)” value ([1]; 0.50 μM drug, 1 mM CaCl2)?
**A.** 84.8 ± 10.1%

**Q.** And the “Percent Inhibition (gelatinase activity)” value ([1]; 0.50 μM drug, 10 mM CaCl2)?
**A.** 37.8 ± 7.5^b %

**Q.** What about the “Percent Inhibition (gelatinase activity)” value ([1]; 1.0 μM drug, 1 mM CaCl2) of the same molecule?
**A.** 96.7 ± 4.6^a %

**Q.** What about the “Percent Inhibition (gelatinase activity)” value ([1]; 1.0 μM drug, 10 mM CaCl2) of the same molecule?
**A.** 45.1 ± 2.9%

**Q.** And the “Percent Inhibition (gelatinase activity)” value ([1]; 2.0 μM drug, 10 mM CaCl2)?
**A.** 51.2 ± 2.6%

**Q.** What about the “Percent Inhibition (gelatinase activity)” value ([1]; 5.0 μM drug, 1 mM CaCl2) of the same molecule?
**A.** 97.2 ± 2.9%

**Q.** What about the “Percent Inhibition (gelatinase activity)” value ([1]; 5.0 μM drug, 10 mM CaCl2) of the same molecule?
**A.** 52.4 ± 3.5%

**Q.** What about the “Percent Inhibition (gelatinase activity)” value ([1]; 10 μM drug, 1 mM CaCl2) of the same molecule?
**A.** 100%

**Q.** What about the “Percent Inhibition (gelatinase activity)” value ([1]; 10 μM drug, 10 mM CaCl2) of the same molecule?
**A.** 69.9 ± 10.5%

**Q.** What about the “Percent Inhibition (gelatinase activity)” value ([1]; 20 μM drug, 10 mM CaCl2) of the same molecule?
**A.** 78.9 ± 11.4%

**Q.** What about the “Percent Inhibition (gelatinase activity)” value ([1]; 50 μM drug, 10 mM CaCl2) of the same molecule?
**A.** 94.2 ± 3.3%

**Q.** And the IC50 ([1]; 1 mM CaCl2)?
**A.** 500 nM

**Q.** And the IC50 ([1]; 10 mM CaCl2)?
**A.** ~1500 nM

**Q.** And the “change in fluorescence (viability)” value ([2]; 10 μM and 20 μM, three-day period)?
**A.** virtually no change in fluorescence

**Q.** What about the cytotoxicity ([2]; 50 µM) of the same molecule?
**A.** no comparable cytotoxicity

**Q.** And the “Number of Lung Metastases/Mouse” value ([3]; 40 mg/kg daily intragastric)?
**A.** 111 ± 105

**Q.** And the “effect on number of lung metastases (significance)” value ([3]; 40 mg/kg daily, p<0.05)?
**A.** significantly reduced the number of lung metastases

**Q.** And the “effect on number of lung metastases (significance)” value ([3]; 100 mg/kg)?
**A.** did not significantly reduce the number of lung metastases

**Q.** What about the “Number of Lung Metastases/Mouse” value ([3]; 100 mg/kg daily intragastric) of the same molecule?
**A.** 176 ± 82

**Q.** And the “Percent Inhibition of MMP Protein Expression” value ([4]; E-10, MMP-9, 10 μM)?
**A.** 45.3%

**Q.** And the “Percent Inhibition of MMP Protein Expression” value ([4]; E-10, MMP-9, 20 μM)?
**A.** 60.8%

**Q.** What about the “IC50, inhibition of activation of MMPs by APMA” value ([5]; 10 mM CaCl2) of the same molecule?
**A.** 1.0 µg/mL

**Q.** What about the IC50 ([5]; 10 mM CaCl2, value in brackets) of the same molecule?
**A.** 2200 nM

**Q.** And the “Percent Inhibition of MMP Protein Expression” value ([6]; COLO 205, MMP-2, 10 μM)?
**A.** 13.3%

**Q.** What about the “Percent Inhibition of MMP Protein Expression” value ([6]; COLO 205, MMP-2, 20 μM) of the same molecule?
**A.** 66.9%
